According to article PMC8632069 (Journal of medicinal chemistry, 2021):
Blank lines part the entries; values can stand above or below the compound they belong to.

Assays:
[1] = system: Mfn2-null (i.e. expressing Mfn1 only) murine embryonic fibroblasts; assay: Mitochondrial elongation; format: cell-based, mouse; conditions: dose-response, compared with 2; result in words
[2] = system: mitofusin mRNA expression; conditions: transcriptional enhancer of mitofusin mRNA expression; cited from earlier work
[3] = Plasma and nerve tissue pharmacokinetics, single oral dose in non-fasted mice; format: in vivo; conditions: male, CD-1, mouse, 50 mg/kg
[4] = mice, IV, 10 mg/kg, plasma; cited from earlier work

Compound: O=C(CCCCc1ccccc1)N[C@H]1CC[C@H](O)CC1 [Compound 3, N-((1r,4r)-4-hydroxycyclohexyl)-5-phenylpentanamide]
mitofusin activation measured as ability to promote mitochondrial fusion (increased aspect ratio) [1]: largely abrogated mitofusin activation

Compound: Cc1oncc1C(=O)Nc1ccc(C(F)(F)F)cc1 [leflunomide]
effective concentrations [2]: 10 to 50 µM

MRT inf ([3]; plasma): 3.58 h
Tmax ([3]; plasma): 0.5 h
Compound: O=C(N[C@H]1CC[C@H](O)CC1)C1CC1CCCc1ccccc1 (stereo partly shown) [Compound 5, N-(4-hydroxycyclohexyl)-2-(3-phenylpropyl)cyclopropane-1-carboxamide]

Compound: O=C(CCCCCc1ccccc1)N[C@H]1CC[C@H](O)CC1 [Compound 2]
C0 [4]: 50,600 ng/mL

Kp ([3]; brain and plasma): 0.394
Compound: O=C(N[C@H]1CC[C@H](O)CC1)[C@@H]1C[C@H]1CCCc1ccccc1 [Compound 5B, N-(4-hydroxycyclohexyl)-2-(3-phenylpropyl)cyclopropane-1-carboxamide]

Compound: O=C(CCCc1ccccc1)N[C@H]1CC[C@H](O)CC1 [Compound 4, N-((1r,4r)-4-hydroxycyclohexyl)-4-phenylbutanamide]
mitofusin activation measured as ability to promote mitochondrial fusion (increased aspect ratio) [1]: largely abrogated mitofusin activation
